Tests used:
[1] = Classification by basicity, acidity or neutrality; type: physicochemical
Text: (§1) Physico-chemical properties of PF […] substance, PF […] substance and PF […] substance thus obtained are given below: […]

fowl roundworms = test: Anthelmintic activity; type: in vivo; conditions: parasite not named at this place; stated in words only
[2] = Solubilities (physico-chemical properties); type: physicochemical
Text: as §1

With `CC(C)C[C@H]1C(=O)O[C@H](C)C(=O)N(C)[C@@H](CC(C)C)C(=O)O[C@H](C)C(=O)N(C)[C@@H](CC(C)C)C(=O)O[C@H](C)C(=O)N(C)[C@@H](CC(C)C)C(=O)O[C@H](C)C(=O)N1C` [PF 1022F substance] the “Classification by basicity, acidity or neutrality” value [1] was “Neutral substance”, the “Anthelmintic activities (general statement)” value (fowl roundworms) was “having anthelmintic activities” and the “Solubility in organic solvents” value ([2]; chloroform, acetone, ethyl acetate, methanol and dimethylsulfoxide) was “Soluble”. For the same compound, the Solubility in n-hexane ([2]; solvent: n-hexane) was “Insoluble” and the Solubility in water ([2]; solvent: water) was “Insoluble”.

From patent publication US6043058A, “Preparation of cyclic depsipeptide compounds and a novel cyclic depsipeptide” (Maiji Seika Kaisha Ltd., priority 1996, dated 2000)
